The experiment deals with MV-4-11 cells. The experiment is described as follows: Gene expression microarray analysis (Affymetrix PrimeView) and GSEA. The format is cell-based, human. The note with it: ProbeSet 11755436_x_at; LIST B. Details: RFU PODN (11730768_x_at) / Fold change /veh PODN (11730768_x_at) / RFU LINC00158 (11744669_a_at) / Fold change /veh LINC00158 (11744669_a_at) / RFU DUSP10 (11751237_a_at) / Fold change /veh DUSP10 (11751237_a_at) / RFU ID3 (11757404_x_at) / Fold change /veh ID3 (11757404_x_at) / RFU PLEKHG5 (11737974_s_at) / Fold change /veh PLEKHG5 (11737974_s_at) / RFU LRRC4B (11730491_at) / Fold change /veh LRRC4B (11730491_at) / RFU GIMAP4 (11747438_a_at) / Fold change /veh GIMAP4 (11747438_a_at) / RFU KRT8 (11758183_x_at) / Fold change /veh KRT8 (11758183_x_at) / RFU CNN1 (11734310_a_at) / Fold change /veh CNN1 (11734310_a_at) / RFU VPS37D (11726825_at) / Fold change /veh VPS37D (11726825_at) / RFU C10orf10 (11716522_x_at) / Fold change /veh C10orf10 (11716522_x_at) / RFU KIR2DL2 /// KIR2DL4 /// KIR2DL5A /// KIR2DL5B /// KIR2DS1 /// KIR2DS2 /// KIR2DS3 /// KIR2DS4 /// KIR3DL3 /// KIR3DL3 /// KIR3DS1 (11738374_at) / Fold change /veh KIR2DL2 /// KIR2DL4 /// KIR2DL5A /// KIR2DL5B /// KIR2DS1 /// KIR2DS2 /// KIR2DS3 /// KIR2DS4 /// KIR3DL3 /// KIR3DL3 /// KIR3DS1 (11738374_at) / RFU C1QL1 (11718748_at) / Fold change /veh C1QL1 (11718748_at) / RFU TMPRSS4 (11747572_a_at) / Fold change /veh TMPRSS4 (11747572_a_at) / RFU HAMP (11756126_x_at) / Fold change /veh HAMP (11756126_x_at) / RFU RNFT2 (11725882_a_at) / Fold change /veh RNFT2 (11725882_a_at) / RFU NR4A2 (11747474_a_at) / Fold change /veh NR4A2 (11747474_a_at) / RFU ABCC12 (11746883_a_at) / Fold change /veh ABCC12 (11746883_a_at) / RFU TMEM136 (11760407_x_at) / Fold change /veh TMEM136 (11760407_x_at) / RFU CLDN22 /// WWC2 (11732394_at) / Fold change /veh CLDN22 /// WWC2 (11732394_at) / RFU HLA-DPB1 (11760878_x_at) / Fold change /veh HLA-DPB1 (11760878_x_at) / RFU SPINT1 (11716480_a_at) / Fold change /veh SPINT1 (11716480_a_at) / RFU GAP43 (11754022_s_at) / Fold change /veh GAP43 (11754022_s_at) / RFU A4GNT (11735810_at) / Fold change /veh A4GNT (11735810_at) / RFU PRB3 (11715151_x_at) / Fold change /veh PRB3 (11715151_x_at) / RFU TUBB4B (11761932_at) / Fold change /veh TUBB4B (11761932_at) / RFU CAPN14 (11732068_a_at) / Fold change /veh CAPN14 (11732068_a_at) / RFU TMCC2 (11721928_a_at) / Fold change /veh TMCC2 (11721928_a_at) / RFU IRGQ (11745062_a_at) / Fold change /veh IRGQ (11745062_a_at) / RFU FAM174B (11720279_a_at) / Fold change /veh FAM174B (11720279_a_at) / RFU TMPRSS4 (11748680_a_at) / Fold change /veh TMPRSS4 (11748680_a_at) / RFU FAM212B (11763350_a_at) / Fold change /veh FAM212B (11763350_a_at) / RFU PLEKHG5 (11743358_a_at) / Fold change /veh PLEKHG5 (11743358_a_at) / RFU ZSCAN30 (11745921_a_at) / Fold change /veh ZSCAN30 (11745921_a_at) / RFU CMKLR1 (11741424_a_at) / Fold change /veh CMKLR1 (11741424_a_at) / RFU LOC101060620 /// MAPK8IP1 (11723275_at) / Fold change /veh LOC101060620 /// MAPK8IP1 (11723275_at) / RFU SPTSSB (11747773_x_at) / Fold change /veh SPTSSB (11747773_x_at) / RFU PRSS12 (11739890_at) / Fold change /veh PRSS12 (11739890_at) / RFU BIN1 (11741810_x_at) / Fold change /veh BIN1 (11741810_x_at) / RFU WNT11 (11732464_a_at) / Fold change /veh WNT11 (11732464_a_at) / RFU C10orf10 (11716521_a_at) / Fold change /veh C10orf10 (11716521_a_at) / RFU C5orf56 (11738089_at) / Fold change /veh C5orf56 (11738089_at) / RFU CYB561 (11721691_x_at) / Fold change /veh CYB561 (11721691_x_at) / RFU ANKRD19P (11752326_a_at) / Fold change /veh ANKRD19P (11752326_a_at) / RFU OR2T12 /// OR2T33 /// OR2T8 (11738714_s_at) / Fold change /veh OR2T12 /// OR2T33 /// OR2T8 (11738714_s_at) / RFU VCAN (11748164_a_at) / Fold change /veh VCAN (11748164_a_at) / RFU JSRP1 (11732532_at) / Fold change /veh JSRP1 (11732532_at) / RFU KRTAP10-11 (11738290_x_at) / Fold change /veh KRTAP10-11 (11738290_x_at) / RFU MYO3A (11730013_a_at) / Fold change /veh MYO3A (11730013_a_at) / RFU EBF3 (11725865_a_at) / Fold change /veh EBF3 (11725865_a_at) / RFU CAMK2N1 (11719241_x_at) / Fold change /veh CAMK2N1 (11719241_x_at) / RFU C5orf56 (11738088_a_at) / Fold change /veh C5orf56 (11738088_a_at) / RFU OLFML3 (11715873_a_at) / Fold change /veh OLFML3 (11715873_a_at) / RFU LOC100653217 /// NTM (11731650_a_at) / Fold change /veh LOC100653217 /// NTM (11731650_a_at) / RFU MAPK11 (11762145_a_at) / Fold change /veh MAPK11 (11762145_a_at) / RFU FIZ1 (11724087_x_at) / Fold change /veh FIZ1 (11724087_x_at) / RFU OASL (11726364_x_at) / Fold change /veh OASL (11726364_x_at) / RFU SOX15 (11748057_x_at) / Fold change /veh SOX15 (11748057_x_at) / RFU CD79A (11719716_a_at) / Fold change /veh CD79A (11719716_a_at) / RFU HIST1H1D (11736915_at) / Fold change /veh HIST1H1D (11736915_at) / RFU CASKIN2 (11723855_a_at) / Fold change /veh CASKIN2 (11723855_a_at) / RFU LOC730098 (11760151_x_at) / Fold change /veh LOC730098 (11760151_x_at) / RFU OR4N2 (11742367_at) / Fold change /veh OR4N2 (11742367_at) / RFU PRRT2 (11749266_a_at) / Fold change /veh PRRT2 (11749266_a_at) / RFU SNX32 (11753110_a_at) / Fold change /veh SNX32 (11753110_a_at) / RFU CDHR5 (11726645_a_at) / Fold change /veh CDHR5 (11726645_a_at) / RFU RCAN1 (11760418_a_at) / Fold change /veh RCAN1 (11760418_a_at) / RFU FAM167A (11723789_a_at) / Fold change /veh FAM167A (11723789_a_at) / RFU FAM26E (11764081_at) / Fold change /veh FAM26E (11764081_at) / RFU ISYNA1 (11749810_s_at) / Fold change /veh ISYNA1 (11749810_s_at) / RFU ACY1 (11761880_at) / Fold change /veh ACY1 (11761880_at) / RFU 11764098_at / Fold change /veh 11764098_at / RFU SAMD14 (11745864_x_at) / Fold change /veh SAMD14 (11745864_x_at) / RFU NPB (11741838_a_at) / Fold change /veh NPB (11741838_a_at) / RFU TMPRSS6 (11731388_a_at) / Fold change /veh TMPRSS6 (11731388_a_at) / RFU KRTAP10-2 (11738614_at) / Fold change /veh KRTAP10-2 (11738614_at) / RFU ARHGAP8 /// PRR5-ARHGAP8 (11727945_x_at) / Fold change /veh ARHGAP8 /// PRR5-ARHGAP8 (11727945_x_at) / RFU KRTAP5-7 /// NADSYN1 (11734609_at) / Fold change /veh KRTAP5-7 /// NADSYN1 (11734609_at) / RFU RASL12 (11751679_a_at) / Fold change /veh RASL12 (11751679_a_at) / RFU CDKN2B (11736163_a_at) / Fold change /veh CDKN2B (11736163_a_at) / RFU PRF1 (11729649_at) / Fold change /veh PRF1 (11729649_at) / RFU, ZNF638 /// ZNF638-IT1 / Fold change vs veh, ZNF638 /// ZNF638-IT1 / RFU, PANK3 / Fold change vs veh, PANK3 / RFU, SH3YL1 / Fold change vs veh, SH3YL1 / RFU, ZEB2 / Fold change vs veh, ZEB2 / RFU, NRIP1 / Fold change vs veh, NRIP1 / RFU, PTTG1IP / Fold change vs veh, PTTG1IP / RFU, CAPN2 / Fold change vs veh, CAPN2 / RFU, MED14 / Fold change vs veh, MED14 / RFU, SNORA58 / Fold change vs veh, SNORA58 / RFU, C1orf63 / Fold change vs veh, C1orf63 / RFU, LRRFIP1 / Fold change vs veh, LRRFIP1 / RFU, NDUFAF7 / Fold change vs veh, NDUFAF7 / RFU, SLC12A2 / Fold change vs veh, SLC12A2 / RFU, IBTK / Fold change vs veh, IBTK / RFU, ESF1 / Fold change vs veh, ESF1 / Fold change vs veh, TMEM50B / RFU, TAOK1 / Fold change vs veh, TAOK1 / RFU, ACBD3 / Fold change vs veh, ACBD3 / RFU, TMA16 / Fold change vs veh, TMA16 / RFU, RWDD3 / Fold change vs veh, RWDD3 / RFU, BCAT1 / Fold change vs veh, BCAT1 / RFU, EDEM3 / Fold change vs veh, EDEM3 / RFU, TMEM33 / Fold change vs veh, TMEM33 / RFU, WDR75 / Fold change vs veh, WDR75 / RFU, AHCTF1 / Fold change vs veh, AHCTF1 / RFU, TFRC / Fold change vs veh, TFRC / RFU, ZDHHC17 / Fold change vs veh, ZDHHC17 / RFU, NOM1 / Fold change vs veh, NOM1 / RFU, ARL8B / Fold change vs veh, ARL8B / RFU, ZBTB11 / Fold change vs veh, ZBTB11 / RFU, TAMM41 / Fold change vs veh, TAMM41 / RFU, KIAA1704 /// LOC100996395 / Fold change vs veh, KIAA1704 /// LOC100996395 / RFU, ING1 / Fold change vs veh, ING1 / RFU, TRMT61B / Fold change vs veh, TRMT61B / RFU, FUBP3 / Fold change vs veh, FUBP3 / RFU, TP53 / Fold change vs veh, TP53 / RFU, TNKS2 / Fold change vs veh, TNKS2 / RFU, ZFP14 / Fold change vs veh, ZFP14 / RFU, ACTR2 / Fold change vs veh, ACTR2 / RFU, PPP3R1 / Fold change vs veh, PPP3R1 / RFU, PIK3R1 / Fold change vs veh, PIK3R1 / RFU, HNRNPA1 / Fold change vs veh, HNRNPA1 / RFU, RNF170 / Fold change vs veh, RNF170 / RFU, ZNF28 / Fold change vs veh, ZNF28 / RFU, RNGTT / Fold change vs veh, RNGTT / RFU, OGT / Fold change vs veh, OGT / RFU, BRD1 / Fold change vs veh, BRD1 / RFU, MARS / Fold change vs veh, MARS / RFU, ZNF655 / Fold change vs veh, ZNF655 / RFU, FAHD1 / Fold change vs veh, FAHD1 / RFU, BDP1 / Fold change vs veh, BDP1 / RFU, LRRCC1 / Fold change vs veh, LRRCC1 / RFU, ARID1A / Fold change vs veh, ARID1A / RFU, ZNF146 / Fold change vs veh, ZNF146 / RFU, ZNF330 / Fold change vs veh, ZNF330 / RFU, GPN3 / Fold change vs veh, GPN3 / RFU, C9orf123 / Fold change vs veh, C9orf123 / RFU, N4BP2L2 / Fold change vs veh, N4BP2L2 / RFU, ARFIP1 / Fold change vs veh, ARFIP1 / RFU, FAM179B / Fold change vs veh, FAM179B / RFU, BCL10 / Fold change vs veh, BCL10 / RFU, UHRF1BP1L / Fold change vs veh, UHRF1BP1L / RFU, BET1 / Fold change vs veh, BET1 / RFU, CNOT2 / Fold change vs veh, CNOT2 / RFU, ZNF268 / Fold change vs veh, ZNF268 / Fold change vs veh, ZNF507 / RFU, DGCR2 / Fold change vs veh, DGCR2 / RFU, WDSUB1 / Fold change vs veh, WDSUB1 / Fold change vs veh, HSP90B1 /// MIR3652 / RFU, ADSS / Fold change vs veh, ADSS / RFU, GK / Fold change vs veh, GK / RFU, ZNF148 / Fold change vs veh, ZNF148 / RFU, TAF9 / Fold change vs veh, TAF9 / RFU, SLC1A5 / Fold change vs veh, SLC1A5 / RFU, SLMO2 / Fold change vs veh, SLMO2 / RFU, ABCC4 / Fold change vs veh, ABCC4 / RFU, LOC101060439 /// RAP1B / Fold change vs veh, LOC101060439 /// RAP1B / RFU, RFX7 / Fold change vs veh, RFX7 / RFU, GTPBP10 / Fold change vs veh, GTPBP10 / RFU, CNEP1R1 / Fold change vs veh, CNEP1R1 / RFU, BIVM-ERCC5 /// ERCC5 / Fold change vs veh, BIVM-ERCC5 /// ERCC5 / RFU, ILF3 / Fold change vs veh, ILF3 / RFU 11762660_at / Fold change /veh 11762660_at / RFU VCAN (11757783_s_at) / Fold change /veh VCAN (11757783_s_at) / RFU DDX43 (11728927_at) / Fold change /veh DDX43 (11728927_at) / RFU KRT8 (11758188_x_at) / Fold change /veh KRT8 (11758188_x_at) / RFU NKD1 (11759106_at) / Fold change /veh NKD1 (11759106_at) / RFU SRD5A1 (11742802_a_at) / Fold change /veh SRD5A1 (11742802_a_at) / RFU TPSAB1 /// TPSB2 (11721975_s_at) / Fold change /veh TPSAB1 /// TPSB2 (11721975_s_at) / RFU GSTM3 (11746129_a_at) / Fold change /veh GSTM3 (11746129_a_at) / RFU IL23R (11737362_x_at) / Fold change /veh IL23R (11737362_x_at) / RFU TMEM51 (11727254_a_at) / Fold change /veh TMEM51 (11727254_a_at) / RFU PIWIL2 (11732686_x_at) / Fold change /veh PIWIL2 (11732686_x_at) / RFU ORM1 (11744905_x_at) / Fold change /veh ORM1 (11744905_x_at) / RFU CCDC152 (11743942_at) / Fold change /veh CCDC152 (11743942_at) / RFU ECM1 (11717891_a_at) / Fold change /veh ECM1 (11717891_a_at) / RFU IL23R (11748794_a_at) / Fold change /veh IL23R (11748794_a_at) / RFU TNFAIP8L3 (11732012_x_at) / Fold change /veh TNFAIP8L3 (11732012_x_at) / RFU MBOAT4 (11741988_at) / Fold change /veh MBOAT4 (11741988_at) / RFU 11764193_at / Fold change /veh 11764193_at / RFU TMEM53 (11763286_at) / Fold change /veh TMEM53 (11763286_at) / RFU MAGEB2 (11727129_at) / Fold change /veh MAGEB2 (11727129_at) / RFU TMEM200A (11744735_a_at) / Fold change /veh TMEM200A (11744735_a_at) / RFU CCDC152 (11751479_a_at) / Fold change /veh CCDC152 (11751479_a_at) / RFU FAM211A (11726209_a_at) / Fold change /veh FAM211A (11726209_a_at) / RFU RGS16 (11746705_a_at) / Fold change /veh RGS16 (11746705_a_at) / RFU VCAN (11755009_s_at) / Fold change /veh VCAN (11755009_s_at) / RFU RHOB (11743442_s_at) / Fold change /veh RHOB (11743442_s_at) / RFU RGS16 (11720943_a_at) / Fold change /veh RGS16 (11720943_a_at) / RFU RGS16 (11720944_at) / Fold change /veh RGS16 (11720944_at) / RFU, VPS4B / Fold change vs veh, VPS4B / RFU, CREB1 / Fold change vs veh, CREB1 / RFU, DNAJC13 / Fold change vs veh, DNAJC13 / RFU, GNAQ / Fold change vs veh, GNAQ / RFU, CDK5R1 / Fold change vs veh, CDK5R1 / RFU, ZRANB3 / Fold change vs veh, ZRANB3 / RFU, CUL4A / Fold change vs veh, CUL4A / RFU, CCNY / Fold change vs veh, CCNY / RFU, UFL1 / Fold change vs veh, UFL1 / RFU, COG3 / Fold change vs veh, COG3 / RFU, DIAPH2 / Fold change vs veh, DIAPH2 / RFU, SKA2 / Fold change vs veh, SKA2 / RFU, AFF3 / Fold change vs veh, AFF3 / RFU, LMF1 / Fold change vs veh, LMF1 / RFU, IPO11 / Fold change vs veh, IPO11 / RFU, DFFB / Fold change vs veh, DFFB / RFU, FOXP1 / Fold change vs veh, FOXP1 / RFU, CARD8 / Fold change vs veh, CARD8 / RFU, STRN3 / Fold change vs veh, STRN3 / RFU, ADK / Fold change vs veh, ADK / RFU, RASSF2 / Fold change vs veh, RASSF2 / RFU, WIPF1 / Fold change vs veh, WIPF1 / RFU, LARP1B / Fold change vs veh, LARP1B / RFU, RASA1 / Fold change vs veh, RASA1 / RFU, RB1 / Fold change vs veh, RB1 / RFU, PPFIA1 / Fold change vs veh, PPFIA1 / RFU, MAT2A / Fold change vs veh, MAT2A / RFU, CCT5 / Fold change vs veh, CCT5 / RFU, WDR92 / Fold change vs veh, WDR92 / RFU, CUX1 / Fold change vs veh, CUX1 / RFU, TTC7A / Fold change vs veh, TTC7A / RFU, TMEM135 / Fold change vs veh, TMEM135 / RFU, DEPTOR / Fold change vs veh, DEPTOR / RFU, CPM / Fold change vs veh, CPM / RFU, DNAJB6 / Fold change vs veh, DNAJB6 / RFU, CACNA2D3 / Fold change vs veh, CACNA2D3 / RFU, DTX4 / Fold change vs veh, DTX4 / RFU, TFCP2 / Fold change vs veh, TFCP2 / RFU, GMCL1 /// GMCL1P1 / Fold change vs veh, GMCL1 /// GMCL1P1 / RFU, AEBP2 / Fold change vs veh, AEBP2 / RFU, SNHG1 /// SNORD22 /// SNORD25 /// SNORD26 /// SNORD27 /// SNORD28 /// SNORD29 /// SNORD31 / Fold change vs veh, SNHG1 /// SNORD22 /// SNORD25 /// SNORD26 /// SNORD27 /// SNORD28 /// SNORD29 /// SNORD31 / Fold change (Aza/veh), C12orf56 (ProbeSet 11735607_a_at) / Fold change (ACY-1035/veh), C12orf56 (ProbeSet 11735607_a_at) / Fold change (Aza/veh), FGFR1OP (ProbeSet 11751329_s_at) / Fold change (ACY-1035/veh), FGFR1OP (ProbeSet 11751329_s_at) / Fold change (Aza/veh), VPS36 (ProbeSet 11739960_a_at) / Fold change (ACY-1035/veh), VPS36 (ProbeSet 11739960_a_at) / RFU SYPL1 (11715823_x_at) / Fold change /veh SYPL1 (11715823_x_at) / RFU IGFBP7 (11715501_s_at) / Fold change /veh IGFBP7 (11715501_s_at) / RFU REEP3 (11722064_at) / Fold change /veh REEP3 (11722064_at) / RFU IGLL1 (11728026_x_at) / Fold change /veh IGLL1 (11728026_x_at): dose or concentration left out as unconfirmed.

For `Nc1ncn([C@@H]2O[C@H](CO)[C@@H](O)[C@H]2O)c(=O)n1` [azacitidine], the “Fold change vs veh, ARID1A” value is recorded as 1.10.

Values taken from paper PMC5218480 (PLoS ONE, 2017).
